From patent US20240335431A1, “1-H-PYRROLO[2,3-c]PYRIDINE COMPOUNDS” (Acerta Pharma B.V., priority 2023, published 2024) come the findings set out here.

Data set [1] in a line: Caco-2 cell monolayers intrinsic permeation assay in the presence of efflux inhibitors. The format is in vitro ADME. Particulars: Caco-2, with efflux inhibitors. Summed up:
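Caco-2 monolayers grown 14–18 days on Transwells; compound dosed apically in HBSS with efflux inhibitors (Zosuquidar, Benzbromarone, KO-143), inhibitors also basolateral, 37 °C with shaking. Sampled at 0, 45 and 120 min, analysed by LC/MS/MS; apical-to-basolateral Papp (cm/s) calculated.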
Background: Passage across Caco-2 layers is used to estimate intestinal permeability.

Data set [2] can be described thus: Human hepatocyte intrinsic clearance assay. The format is in vitro ADME. The following applies: human hepatocytes. The method, boiled down:
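Pooled 10-donor cryopreserved human hepatocytes in suspension (0.25×10^6 cells in 0.25 mL) incubated with test compound at […], 37° C. Samples taken 0.5–120 min and quenched in acetonitrile, parent remaining measured by LC-MS/MS. CLint ([…]) derived from slope of ln % remaining vs time.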

As to `CC(C)N(C(=O)c1cc(F)ccc1-n1cc(C(=O)[C@@H]2CCN(C(=O)[C@H]3N[C@@H]4CC[C@H]3C4)C2)c2ccncc21)C(C)C` [Example 3, 2-(3-((R)-1-((1R,3S,4S)-2-Azabicyclo[2.2.1]heptane-3-carbonyl)pyrrolidine-3-carbonyl)-1H-pyrrolo[2,3-c]pyridin-1-yl)-5-fluoro-N,N-diisopropylbenzamide], the Papp A→B in data set [1] was found to be 0.3 ×10⁻⁶ cm/s. Also, the “HH CLint” value in data set [2] is under 1.0 μl/min/1E6.
Regarding `CC(C)N(C(=O)c1cc(F)ccc1-n1cc(C(=O)[C@@H]2CCN(C[C@H]3CC[C@H](NS(C)(=O)=O)CC3)C2)c2ccncc21)C(C)C` [Example 4, 5-Fluoro-N,N-diisopropyl-2-(3-((R)-1-(((1r,4R)-4-(methylsulfonamido)-cyclohexyl)methyl)pyrrolidine-3-carbonyl)-1H-pyrrolo[2,3-c]pyridin-1-yl)benzamide], the Papp A→B in data set [1] came to 2 ×10⁻⁶ cm/s. In addition, the “HH CLint” value in data set [2] is reported as 2.3 μl/min/1E6.
In the case of `CC(C)N(C(=O)c1cc(F)ccc1-n1cc(C(=O)C2CN(C(=O)[C@H]3N[C@@H]4CC[C@H]3C4)C2)c2ccncc21)C(C)C` [Example 5, 2-(3-(1-((1R,3S,4S)-2-Azabicyclo[2.2.1]heptane-3-carbonyl)azetidine-3-carbonyl)-1H-pyrrolo[2,3-c]pyridin-1-yl)-5-fluoro-N,N-diisopropylbenzamide], in data set [1], the Papp A→B worked out at 1.2 ×10⁻⁶ cm/s. For the same molecule, the “HH CLint” value in data set [2] was under 1.0 μl/min/1E6.
Consider `CC(C)N(C(=O)c1cc(F)ccc1-n1cc(C(=O)C2CN(C(=O)[C@H]3N[C@H]4C[C@@H]3[C@@H](F)C4)C2)c2ccncc21)C(C)C` [Example 7, 5-Fluoro-2-(3-(1-((1S,3S,4S,5S)-5-fluoro-2-azabicyclo[2.2.1]heptane-3-carbonyl)azetidine-3-carbonyl)-1H-pyrrolo[2,3-c]pyridin-1-yl)-N,N-diisopropylbenzamide], for which the Papp A→B in data set [1] turned out to be 2.2 ×10⁻⁶ cm/s. Also, in data set [2], the “HH CLint” value was 3.2 μl/min/1E6.
Regarding `CCN(C(=O)c1cc(F)ccc1-n1cc(C(=O)C2CN(C(=O)[C@H]3NC4CCC3CC4)C2)c2ccncc21)C(C)C` [Example 9, (S)-2-(3-(1-(2-Azabicyclo[2.2.2]octane-3-carbonyl)azetidine-3-carbonyl)-1H-pyrrolo[2,3-c]pyridin-1-yl)-N-ethyl-5-fluoro-N-isopropylbenzamide], in data set [1], the Papp A→B amounted to 0.5 ×10⁻⁶ cm/s. The “HH CLint” value in data set [2] turned out to be 3.8 μl/min/1E6.
As to `CC(C)c1ncccc1-c1cc(F)ccc1-n1cc(C(=O)C2CN(C(=O)[C@H]3N[C@@H]4CC[C@H]3C4)C2)c2ccncc21` [Example 10, (1-((1R,3S,4S)-2-Azabicyclo[2.2.1]heptane-3-carbonyl)azetidin-3-yl)(1-(4-fluoro-2-(2-isopropylpyridin-3-yl)phenyl)-1H-pyrrolo[2,3-c]pyridin-3-yl)methanone], the Papp A→B in data set [1] came out at 2.6 ×10⁻⁶ cm/s. Also, the “HH CLint” value in data set [2] is reported as under 2.2 μl/min/1E6.
The matching figures for `CC(C)c1cnccc1-c1cc(F)ccc1-n1cc(C(=O)C2CN(C(=O)[C@H]3N[C@@H]4CC[C@H]3C4)C2)c2ccncc21.O=CO` [Example 11, (1-((1R,3S,4S)-2-Azabicyclo[2.2.1]heptane-3-carbonyl)azetidin-3-yl)(1-(4-fluoro-2-(3-isopropylpyridin-4-yl)phenyl)-1H-pyrrolo[2,3-c]pyridin-3-yl)methanone 1·formic acid]: 0.7 ×10⁻⁶ cm/s and under 1.0 μl/min/1E6.
`CC(C)c1ncsc1-c1cc(F)ccc1-n1cc(C(=O)C2CN(C(=O)[C@H]3N[C@@H]4CC[C@H]3C4)C2)c2ccncc21.O=CO` [Example 12, (1-((1R,3S,4S)-2-Azabicyclo[2.2.1]heptane-3-carbonyl)azetidin-3-yl)(1-(4-fluoro-2-(4-isopropylthiazol-5-yl)phenyl)-1H-pyrrolo[2,3-c]pyridin-3-yl)methanone 1·formic acid]: in data set [1], the Papp A→B is 1.6 ×10⁻⁶ cm/s. Also, in data set [2], the “HH CLint” value was 3.9 μl/min/1E6.
As to `CC(C)N(C(=O)c1cc(F)ccc1-n1cc(C(=O)C2CN(C(=O)[C@H]3N[C@@H]4CC[C@H]3C4)C2)c2ccnc(F)c21)C(C)C` [Example 15, 2-(3-(1-((1R,3S,4S)-2-Azabicyclo[2.2.1]heptane-3-carbonyl)azetidine-3-carbonyl)-7-fluoro-1H-pyrrolo[2,3-c]pyridin-1-yl)-5-fluoro-N,N-diisopropylbenzamide], in data set [1], the Papp A→B came to 4.2 ×10⁻⁶ cm/s. For the same molecule, the “HH CLint” value in data set [2] is 2.9 μl/min/1E6.
For `CC(C)N(C(=O)c1cc(F)ccc1-n1cc(C(=O)C2CCN(C(=O)[C@H]3N[C@@H]4CC[C@H]3C4)CC2)c2ccncc21)C(C)C` [Example 16, 2-(3-(1-((1R,3S,4S)-2-Azabicyclo[2.2.1]heptane-3-carbonyl)piperidine-4-carbonyl)-1H-pyrrolo[2,3-c]pyridin-1-yl)-5-fluoro-N,N-diisopropylbenzamide], the Papp A→B in data set [1] was 0.6 ×10⁻⁶ cm/s. The “HH CLint” value in data set [2] is under 1.0 μl/min/1E6.
With `CC(C)N(C(=O)c1cc(F)ccc1-n1cc(C(=O)C2CCN(C[C@H]3CC[C@H](NS(C)(=O)=O)CC3)CC2)c2ccncc21)C(C)C` [Example 17, 5-Fluoro-N,N-diisopropyl-2-(3-(1-(((1r,4r)-4-(methylsulfonamido)cyclohexyl)-methyl)piperidine-4-carbonyl)-1H-pyrrolo[2,3-c]pyridin-1-yl)benzamide], the Papp A→B in data set [1] is 1.8 ×10⁻⁶ cm/s. For the same molecule, the “HH CLint” value in data set [2] is recorded as 1.2 μl/min/1E6.
Consider `C=C1C[C@@H]2CC[C@H]1[C@@H](C(=O)N1CCC(C(=O)c3cn(-c4ccc(F)cc4C(=O)N(C(C)C)C(C)C)c4cnccc34)CC1)N2` [Example 18, 5-Fluoro-N,N-diisopropyl-2-(3-(1-((1S,3S,4R)-5-methylene-2-azabicyclo[2.2.2]-octane-3-carbonyl)piperidine-4-carbonyl)-1H-pyrrolo[2,3-c]pyridin-1-yl)benzamide], for which the Papp A→B in data set [1] was 3.1 ×10⁻⁶ cm/s. For the same molecule, in data set [2], the “HH CLint” value is 1.6 μl/min/1E6.
With `CC(C)N(C(=O)c1cc(F)ccc1-n1cc(C(=O)C2CCN(C(=O)[C@H]3NC[C@@H]4C[C@@H]43)CC2)c2ccncc21)C(C)C` [Example 19, 2-(3-(1-((1S,2S,5R)-3-Azabicyclo[3.1.0]hexane-2-carbonyl)piperidine-4-carbonyl)-1H-pyrrolo[2,3-c]pyridin-1-yl)-5-fluoro-N,N-diisopropylbenzamide], the Papp A→B in data set [1] worked out at 2.6 ×10⁻⁶ cm/s. The “HH CLint” value in data set [2] stood at 3.6 μl/min/1E6.
In the case of `CC(C)N(C(=O)c1cc(F)ccc1-n1cc(C(=O)C2CCN(C(=O)[C@H]3NC4CCC3CC4)CC2)c2ccncc21)C(C)C` [Example 20, (S)-2-(3-(1-(2-Azabicyclo[2.2.2]octane-3-carbonyl)piperidine-4-carbonyl)-1H-pyrrolo[2,3-c]pyridin-1-yl)-5-fluoro-N,N-diisopropylbenzamide], the Papp A→B in data set [1] turned out to be 0.8 ×10⁻⁶ cm/s. Moreover, in data set [2], the “HH CLint” value is reported as under 1.0 μl/min/1E6.
Taken in the same sequence, the figures for `CC(C)N(C(=O)c1cc(F)ccc1-n1cc(C(=O)C2CCN(C(=O)[C@H]3NC[C@@H]4CCC[C@@H]43)CC2)c2ccncc21)C(C)C` [Example 21, 5-Fluoro-N,N-diisopropyl-2-(3-(1-((1S,3αR,6αS)-octahydrocyclopenta[c]pyrrole-1-carbonyl)piperidine-4-carbonyl)-1H-pyrrolo[2,3-c]pyridin-1-yl)benzamide] were 1.7 ×10⁻⁶ cm/s and 2.0 μl/min/1E6.
As for `CC(C)N(C(=O)c1cc(F)ccc1-n1cc(C(=O)C2CCN(C(=O)[C@H]3N[C@H]4C[C@@H]3[C@@H](F)C4)CC2)c2ccncc21)C(C)C` [Example 22, 5-Fluoro-2-(3-(1-((1S,3S,4S,5S)-5-fluoro-2-azabicyclo[2.2.1]heptane-3-carbonyl)piperidine-4-carbonyl)-1H-pyrrolo[2,3-c]pyridin-1-yl)-N,N-diisopropylbenzamide], the Papp A→B in data set [1] worked out at 3 ×10⁻⁶ cm/s. Further, the “HH CLint” value in data set [2] is listed as under 1.7 μl/min/1E6.
For `CC(C)N(C(=O)c1cc(F)ccc1-n1cc(C(=O)C2CCN(C(=O)[C@@H]3CCC4(CC4)N3)CC2)c2ccncc21)C(C)C` [Example 24, (S)-2-(3-(1-(4-Azaspiro[2.4]heptane-5-carbonyl)piperidine-4-carbonyl)-1H-pyrrolo[2,3-c]pyridin-1-yl)-5-fluoro-N,N-diisopropylbenzamide], the Papp A→B in data set [1] is 18.2 ×10⁻⁶ cm/s. Also, the “HH CLint” value in data set [2] turned out to be 4.1 μl/min/1E6.
As for `CC(C)N(C(=O)c1cc(F)ccc1-n1cc(C(=O)C2CCN(C(=O)[C@@H]3CC4(CC4)CN3)CC2)c2ccncc21)C(C)C` [Example 26, (S)-2-(3-(1-(5-Azaspiro[2.4]heptane-6-carbonyl)piperidine-4-carbonyl)-1H-pyrrolo[2,3-c]pyridin-1-yl)-5-fluoro-N,N-diisopropylbenzamide], the Papp A→B in data set [1] was 0.8 ×10⁻⁶ cm/s. Also, the “HH CLint” value in data set [2] is listed as under 1.0 μl/min/1E6.
For `CC(C)N(C(=O)c1cc(F)ccc1-n1cc(C(=O)C2CCN(C(=O)[C@@H]3CCC(C)(C)N3)CC2)c2ccncc21)C(C)C` [Example 27, (S)-2-(3-(1-(5,5-Dimethylpyrrolidine-2-carbonyl)piperidine-4-carbonyl)-1H-pyrrolo[2,3-c]pyridin-1-yl)-5-fluoro-N,N-diisopropylbenzamide], the Papp A→B in data set [1] is 1.9 ×10⁻⁶ cm/s. For the same molecule, in data set [2], the “HH CLint” value is recorded as under 1.0 μl/min/1E6.
Consider `CCN(C(=O)c1cc(F)ccc1-n1cc(C(=O)C2CCN(C(=O)[C@H]3NC[C@@H]4C[C@@H]43)CC2)c2ccncc21)C(C)C` [Example 28, 2-(3-(1-((1S,2S,5R)-3-Azabicyclo[3.1.0]hexane-2-carbonyl)piperidine-4-carbonyl)-1H-pyrrolo[2,3-c]pyridin-1-yl)-N-ethyl-5-fluoro-N-isopropylbenzamide], for which the Papp A→B in data set [1] stood at 1.1 ×10⁻⁶ cm/s. For the same molecule, in data set [2], the “HH CLint” value was under 1.0 μl/min/1E6.

As usually defined, the Papp A→B is the apparent permeability from the apical to the basolateral side of a cell layer.
